Experimental findings from PubChem BioAssay (NCI) are described below.

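Interpolation was linear, between the two tested concentrations surrounding the appropriate level; five concentrations were tested over 48 hours in 96-well plates. GI50 is the concentration that inhibits growth by half. TGI marks complete inhibition of growth.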

Test systems include SW-620 colon; NCI-H460 lung; HOP-62 NSCLC; UO-31 renal; RXF 393 renal; HCT-15 colon; HT29 colon; NCI-H23 lung; A498 renal; HS 578T breast.
Common to all, as to assay: NCI tumour cell line growth inhibition, 48 h

On to `CCSCN(C)c1nc(N(C)C)nc(N(C)C)n1`, for which the TGI in the assay on SW-620 colon is above 100 µM; in the assay with NCI-H460 lung, above 100 µM; with HOP-62 NSCLC it was above 100 µM; with UO-31 renal it was above 100 µM; in the assay with RXF 393 renal, 61.3 µM; with HCT-15 colon it was above 100 µM. Besides, the TGI in the assay on HT29 colon, in the assay on NCI-H23 lung and in the assay with A498 renal was above 100 µM in each case.
Regarding `C=C(C)C1CC/C(C)=C/CC[C@]2(C)O[C@@H]2CCC2=CC1OC2=O` (stereo partly specified), the GI50 with NCI-H460 lung was above 100 µM; in the assay with HOP-62 NSCLC, above 100 µM; in the assay on UO-31 renal it was 12.7 µM; in the assay with HCT-15 colon it was 42.3 µM; with NCI-H23 lung, 36.8 µM; with A498 renal, 23.2 µM. Moreover, the TGI is above 100 µM with NCI-H460 lung; above 100 µM in the assay on HOP-62 NSCLC; 25.3 µM in the assay on UO-31 renal; above 100 µM with HCT-15 colon; above 100 µM in the assay on NCI-H23 lung; above 100 µM in the assay with A498 renal.
Regarding `COc1cc(C2C(Cl)C(=O)N2NC(=O)c2ccc(NC(C)=O)cc2)ccc1O` (stereo unspecified), the TGI in the assay with SW-620 colon, in the assay with NCI-H460 lung, in the assay with HOP-62 NSCLC, in the assay with UO-31 renal, in the assay with RXF 393 renal and in the assay on HCT-15 colon was above 100 µM throughout. Further, the TGI in the assay on HT29 colon, with NCI-H23 lung and in the assay with A498 renal was above 100 µM throughout.
As to `CCOC(=O)c1cc2c(OCc3ccccc3)c(OC)cc3c2c(n1)N(c1ccc(OC)cc1)C(C)C3` (stereo unspecified), the TGI in the assay with SW-620 colon, in the assay with NCI-H460 lung, in the assay on HOP-62 NSCLC, in the assay with UO-31 renal, with RXF 393 renal and in the assay on HCT-15 colon was above 50 µM in each case. In addition, the TGI with NCI-H23 lung and with A498 renal was above 50 µM each time.
On to `C[S+](C)CC1OC(n2cnc3c(N)ncnc32)C(O)C1O` (stereo unspecified), for which the TGI with SW-620 colon, with NCI-H460 lung, in the assay with HOP-62 NSCLC, in the assay on UO-31 renal, in the assay with RXF 393 renal and in the assay on HCT-15 colon was above 225 µM in each case. Further, the TGI with HT29 colon, with NCI-H23 lung and in the assay with A498 renal was above 225 µM throughout.
Regarding `CN(C)CCNC(=O)c1cccc2cc3cc(O)ccc3nc12`, the TGI in the assay on SW-620 colon amounted to 3.46 µM; in the assay with NCI-H460 lung it was 2.16 µM; in the assay with HOP-62 NSCLC, 2.94 µM; in the assay with RXF 393 renal, 10 µM; in the assay with HCT-15 colon it was 6.53 µM; in the assay with HT29 colon, 4.95 µM. The TGI was 3.24 µM in the assay with NCI-H23 lung and 2.42 µM in the assay on A498 renal.
In the case of `CCN(CC)CCCNC(=O)c1cc2cc(NC(=O)c3cc4cc([N+](=O)[O-])ccc4[nH]3)ccc2[nH]1`, the TGI is above 100 µM in the assay with SW-620 colon; above 100 µM with NCI-H460 lung; 93.4 µM in the assay with HOP-62 NSCLC; above 100 µM with UO-31 renal; above 100 µM with RXF 393 renal; above 100 µM with HCT-15 colon. The figures for the TGI in the assay on HT29 colon, in the assay on NCI-H23 lung and with A498 renal were above 100 µM, above 100 µM and 75.7 µM, respectively.
In the case of `Cc1c(OCc2ccccc2)c(=O)ccn1CCc1c[nH]c2ccccc12`, the TGI in the assay with SW-620 colon, with NCI-H460 lung, with HOP-62 NSCLC, in the assay with UO-31 renal, with HS 578T breast and in the assay on HCT-15 colon was above 100 µM each time. For the same compound, the TGI in the assay on HT29 colon was 71.9 µM; in the assay with NCI-H23 lung, above 100 µM.
Consider `CC1(C)C2CCC3(OCCO3)C1C(O)C2` (stereo unspecified), for which the TGI in the assay with SW-620 colon, in the assay on NCI-H460 lung, with HOP-62 NSCLC, in the assay with UO-31 renal, in the assay with RXF 393 renal and with HCT-15 colon was above 100 µM in each case. Further, the TGI with HT29 colon, with NCI-H23 lung and in the assay on A498 renal was above 100 µM throughout.
With `COC(=O)[C@@](C)(COC(=O)C(C)(C)C)NC(=O)OC(C)(C)C`, the TGI in the assay on SW-620 colon, in the assay on NCI-H460 lung, in the assay on HOP-62 NSCLC, in the assay on UO-31 renal, in the assay on RXF 393 renal and in the assay on HCT-15 colon was above 100 µM throughout. For the same compound, the TGI in the assay with HT29 colon, with NCI-H23 lung and in the assay on A498 renal was above 100 µM each time.
Turning to `O=NN(CCF)C(=O)NC1CC2CCC1C2` (stereo unspecified), the TGI in the assay with SW-620 colon is above 100 µM; in the assay with NCI-H460 lung it was above 100 µM; in the assay on HOP-62 NSCLC, 97.7 µM; with UO-31 renal, above 100 µM; in the assay with RXF 393 renal, above 100 µM; in the assay on HCT-15 colon, above 100 µM. Further, the TGI in the assay on HT29 colon, in the assay with NCI-H23 lung and with A498 renal was above 100 µM throughout.
As to `Nc1cccc(S(=O)(=O)Nc2nnc(S(N)(=O)=O)s2)c1`, the TGI with SW-620 colon, with NCI-H460 lung, in the assay with HOP-62 NSCLC, with UO-31 renal, with RXF 393 renal and with HCT-15 colon was above 100 µM each time. Moreover, the TGI with HT29 colon, in the assay on NCI-H23 lung and in the assay with A498 renal was above 100 µM in each case.
Take `COc1ccc2c(c1)OCCc1cn[nH]c1-2`: the TGI in the assay with SW-620 colon, in the assay on NCI-H460 lung, with HOP-62 NSCLC, in the assay with UO-31 renal, in the assay on RXF 393 renal and in the assay with HCT-15 colon was above 100 µM each time. In addition, the TGI was above 100 µM with HT29 colon, above 100 µM with NCI-H23 lung and 86.1 µM with A498 renal.
For `CO[C@H]1O[C@@H]2CO[C@@H](c3ccccc3)O[C@H]2[C@@H]2C/C=C\CCC[C@@]12O`, the TGI in the assay with SW-620 colon is 81.6 µM; with NCI-H460 lung it was 33 µM; with HOP-62 NSCLC it was 35.5 µM; in the assay with UO-31 renal it was above 100 µM; with RXF 393 renal, 33.2 µM; with HCT-15 colon, 76.5 µM. The TGI in the assay with HT29 colon was 40.3 µM; in the assay on NCI-H23 lung it was 52.7 µM; with A498 renal, 29 µM.
